{
  "source": "patent US7812022B2",
  "about": "(GlaxoSmithKline LLC, priority 2004, dated 2010)",
  "key": {"[1]": {"system": "BT474 and HN5 tumor cell lines", "assay": "Methylene blue growth inhibition assay (cellular Method A)", "type": "cell-based, Human", "conditions": "Homo sapiens, BT-474, 72 h, 3 days, read-out: Activity (Method): growth inhibition IC50 class", "summary_of_the_method": "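Growth inhibition measured by methylene blue staining of biomass (OD 620) after 3 days' compound exposure at 37° C, final DMSO 0.3%. Cell lines: BT474 (10,000/well), HN5 (3,000/well) and Colo205, all in DMEM with 10% FBS; IC50 fitted by nonlinear regression against vehicle-treated wells.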"}, "ErbB2 or EGFR": {"molecular_target": "T1, ErbB2 or EGFR", "T1 construct": "enzymes purified from a baculovirus expression system; Reagent production was conducted essentially as described in Brignola, P. S., et al, (2002) J. Biol. Chem. 277(2): 1576-1585", "assay": "ErbB family substrate phosphorylation enzyme assay (HTRF), Method A or Method B", "type": "biochemical", "summary_of_the_method": "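Baculovirus-expressed EGFR or ErbB2 (0.8 or 10 nM in enzyme mix) phosphorylates biotinylated Peptide C with 20 µM ATP and 0.8 µM peptide (substrate-mix levels), MnCl2, pH 7.5. Reaction ran 90 min at 20 °C with EDTA stop and HTRF anti-phosphotyrosine read. Method A: enzyme added last; Method B: 1 h enzyme–compound preincubation.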"}, "[2]": {"conditions": "Method A: substrate mix added first, reaction started with enzyme mix"}},
  "data": [
    {"molecule": "Cc1ccsc1C(=O)Nc1cccc(-c2nn3ccccc3c2-c2ccnc(Nc3ccccc3)n2)c1", "note": "[Example 145, 3-Methyl-N-(3-{3-[2-(phenylamino)-4-pyrimidinyl]pyrazolo[1,5-a]pyridin-2-yl}phenyl)-2-thiophenecarboxamide]", "values": [
      {"measurement": "IC50", "setting": "[1]", "value": "< 100", "unit": "nM"},
      {"measurement": "Activity (Method): pIC50 class against ErbB2 or EGFR", "setting": "ErbB2 or EGFR; [2]", "value": "+++ (A) (at least one pIC50 measurement of greater than 7 against either ErbB2 or EGFR)"}
    ]},
    {"molecule": "COc1ccc(Nc2nccc(-c3c(-c4cccc(NC(=O)c5c(F)cccc5F)c4)nn4c(C(F)(F)F)cccc34)n2)cc1F", "note": "[Example 154, N-[3-(3-[2-{3-fluoro4-methoxyphenylamino]-4-pyrimidinyl}-7-trifluoropyrazolo[1,5-b]pyridin-2-yl)phenyl]-2,6-difluorobenzamide]", "values": [
      {"measurement": "IC50", "setting": "[1]", "value": "100 to 1000", "unit": "nM"},
      {"measurement": "Activity (Method): pIC50 class against ErbB2 or EGFR", "setting": "ErbB2 or EGFR; [2]", "value": "++ (A) (at least one pIC50 measurement greater than 6 against either ErbB2 or EGFR but no measurement greater than pIC50 of 7)"}
    ]},
    {"molecule": "COc1cc(Nc2nccc(-c3c(-c4cccc(NC(=O)c5c(F)cccc5F)c4)nn4c(C(F)(F)F)cccc34)n2)cc(OC)c1OC", "note": "[Example 151, N-[3-(3-{2-[(3,4,5-Trimethoxyphenyl)amino]-4-pyrimidinyl}-7-trifluoropyrazolo[1,5-b]pyridin-2-yl)phenyl]-2,6-difluorobenzamide]", "values": [
      {"measurement": "IC50", "setting": "[1]", "value": "100 to 1000", "unit": "nM"},
      {"measurement": "Activity (Method): pIC50 class against ErbB2 or EGFR", "setting": "ErbB2 or EGFR; [2]", "value": "++ (A) (at least one pIC50 measurement greater than 6 against either ErbB2 or EGFR but no measurement greater than pIC50 of 7)"}
    ]},
    {"molecule": "O=C(Nc1cccc(-c2nn3ccccc3c2-c2ccnc(Nc3cccc(C(F)(F)F)c3)n2)c1)c1c(F)cccc1F", "note": "[Example 33, 2,6-Difluoro-N-{3-[3-(2-{[3-(trifluoromethyl)phenyl]-amino}-4-pyrimidinyl)pyrazolo[1,5-a]pyridin-2-yl]phenyl}benzamide]", "values": [
      {"measurement": "IC50", "setting": "[1]", "value": "100 to 1000", "unit": "nM"},
      {"measurement": "Activity (Method): pIC50 class against ErbB2 or EGFR", "setting": "ErbB2 or EGFR; [2]", "value": "+++ (A) (at least one pIC50 measurement of greater than 7 against either ErbB2 or EGFR)"}
    ]},
    {"molecule": "COc1cccc2c(-c3ccnc(Nc4cccc(C(F)(F)F)c4)n3)c(-c3cccc(NC(=O)c4c(F)cccc4F)c3)nn12", "note": "[Example 158, 2,6-Difluoro-N-{3-[7-methoxy-3-(2-{[3-(trifluoro-methyl)phenyl]amino}pyrimidin-4-yl)pyrazolo[1,5-a]pyridin-2-yl]phenyl}benzamide]", "values": [
      {"measurement": "IC50", "setting": "[1]", "value": "100 to 1000", "unit": "nM"},
      {"measurement": "Activity (Method): pIC50 class against ErbB2 or EGFR", "setting": "ErbB2 or EGFR; [2]", "value": "++ (A) (at least one pIC50 measurement greater than 6 against either ErbB2 or EGFR but no measurement greater than pIC50 of 7)"}
    ]},
    {"molecule": "O=C(Nc1cccc(-c2nn3ccccc3c2-c2ccnc(Nc3cccc(F)c3)n2)c1)c1ccno1", "note": "[Example 67, N-[3-(3-{2-[(3-fluorophenyl)amino]-4-pyrimidinyl}pyrazolo[1,5-a]pyridin-2-yl)phenyl]-5-isoxazolecarboxamide]", "values": [
      {"measurement": "IC50", "setting": "[1]", "value": "100 to 1000", "unit": "nM"},
      {"measurement": "Activity (Method): pIC50 class against ErbB2 or EGFR", "setting": "ErbB2 or EGFR; Method B: enzyme mix pre-incubated with compound 1 hour at 20° C., started with substrate mix", "value": "+++ (B) (at least one pIC50 measurement of greater than 7 against either ErbB2 or EGFR)"}
    ]},
    {"molecule": "COCCOc1ccc(Nc2nccc(-c3c(-c4cccc(NC(=O)c5c(F)cccc5F)c4)nn4ccccc34)n2)cc1Cl", "note": "[Example 125, N-[3-(3-{2-[(3-Chloro-4-{[2-(methyloxy)ethyl]oxy}-phenyl)amino]-4-pyrimidinyl}pyrazolo[1,5-a]pyridin-2-yl)phenyl]-2,6-difluorobenzamide]", "values": [
      {"measurement": "IC50", "setting": "[1]", "value": "< 100", "unit": "nM"},
      {"measurement": "Activity (Method): pIC50 class against ErbB2 or EGFR", "setting": "ErbB2 or EGFR; [2]", "value": "+++ (A) (at least one pIC50 measurement of greater than 7 against either ErbB2 or EGFR)"}
    ]},
    {"molecule": "S=C(Nc1cccc(-c2nn3ccccc3c2-c2ccnc(Nc3ccc4c(c3)OCCO4)n2)c1)c1ccccc1", "note": "[Example 7, N-(3-{3-[2-(2,3-Dihydro-benzo[1,4]dioxin-6-ylamino)-pyrimidin-4-yl]-pyrazolo[1,5-a]pyridin-2-yl}-phenyl)-thiobenzamide]", "values": [
      {"measurement": "IC50", "setting": "[1]", "value": "100 to 1000", "unit": "nM"},
      {"measurement": "Activity (Method): pIC50 class against ErbB2 or EGFR", "setting": "ErbB2 or EGFR; [2]", "value": "++ (A) (at least one pIC50 measurement greater than 6 against either ErbB2 or EGFR but no measurement greater than pIC50 of 7)"}
    ]}
  ]
}
